From patent US9346813B2, “Substituted pyrrolo[2,3-d]pyrimindines as CDK9 kinase inhibitors” (AbbVie Inc., priority 2014, dated 2016)

Key:
[1] = biological target: T1, CDK9/Cyclin T1 (Homo sapiens, UniProt P50750); experiment: CDK9 enzyme protocol (LANCE ULight TR-FRET kinase assay); format: biochemical; conditions: 4 nM CDK9/Cyclin T1, 1000 μM ATP, 100 nM U-light MBP peptide, 30 minutes
T1 construct: purchased Carna Biosciences 04-110
How it was run: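 Human CDK9/Cyclin T1 (4 nM) phosphorylated 100 nM ULight-MBP peptide at 1000 μM ATP for 30 min in HEPES/MgCl2/Triton buffer. The reaction was stopped with 20 mM EDTA plus 0.5 nM Eu anti-phospho-MBP antibody and equilibrated 1 h. Read-out was TR-FRET (ex 320, em 615/665 nm).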

[2] = system: A431 cells; experiment: Cell viability assay in A431 cells (Cell TiterGlo); format: cell-based; conditions: Homo sapiens, A-431, 24 hours at 37° C.
Method: Cell viability assays were performed using A431 or H929 cells. A431 cells were seeded in 96-well plates at 10,000 cells/well, and after overnight incubation, treated with compounds at 2-times the final concentration to result in a dose response of 3-fold dilutions from 10 μM to 0.0005 μM (50 μL/well, 0.1% final DMSO concentration). H929 cells were seeded in 96-well plates at 10,000 cells/well and treated immediately with compounds as described above. After 24 hours at 37° C., cell viability was measured using Cell TiterGlo reagent (Promega) with a luminescence reader. Alternately, cell viability assays were performed in 384-well format. A431 cells were seeded in 384-well plates at 2500 cells/well and, after overnight incubation, treated with compounds in a dose response of 3-fold dilutions from 10 μM to 0.0005 μM (25 nL/well, 0.1% final DMSO concentration). For the H929 viability assay, 25 nL/well of the compounds was dispensed into 384-well plates in a dose response as described above and cells were immediately seeded in 384-well plates at 2500 cells/well. After 24 hours at 37° C., cell viability was measured using Cell TiterGlo reagent (Promega) with a luminescence reader.

[3] = system: H929 cells; experiment: Cell viability assay in H929 cells (Cell TiterGlo); format: cell-based; conditions: Homo sapiens, NCI-H929, 24 hours at 37° C.
How it was run: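 Cells seeded at 10,000 (96-well) or 2500 (384-well) cells/well; A431 dosed after overnight attachment, H929 dosed at seeding. 3-fold dilutions from 10 μM to 0.0005 μM, 0.1% final DMSO. Viability read by Cell TiterGlo luminescence after 24 hours at 37° C.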

T1 sequence (P50750 whole entry): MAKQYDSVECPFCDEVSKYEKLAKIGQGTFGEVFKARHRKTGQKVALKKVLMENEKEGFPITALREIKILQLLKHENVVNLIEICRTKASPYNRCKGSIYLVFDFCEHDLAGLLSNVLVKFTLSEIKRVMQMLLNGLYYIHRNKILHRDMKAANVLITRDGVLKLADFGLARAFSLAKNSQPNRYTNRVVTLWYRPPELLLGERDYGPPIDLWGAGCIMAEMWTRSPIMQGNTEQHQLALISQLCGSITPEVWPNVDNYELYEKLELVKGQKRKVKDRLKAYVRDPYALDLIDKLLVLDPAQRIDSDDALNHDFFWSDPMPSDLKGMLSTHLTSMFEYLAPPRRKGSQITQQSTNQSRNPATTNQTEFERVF
T1 sequence (O60563 whole entry partner): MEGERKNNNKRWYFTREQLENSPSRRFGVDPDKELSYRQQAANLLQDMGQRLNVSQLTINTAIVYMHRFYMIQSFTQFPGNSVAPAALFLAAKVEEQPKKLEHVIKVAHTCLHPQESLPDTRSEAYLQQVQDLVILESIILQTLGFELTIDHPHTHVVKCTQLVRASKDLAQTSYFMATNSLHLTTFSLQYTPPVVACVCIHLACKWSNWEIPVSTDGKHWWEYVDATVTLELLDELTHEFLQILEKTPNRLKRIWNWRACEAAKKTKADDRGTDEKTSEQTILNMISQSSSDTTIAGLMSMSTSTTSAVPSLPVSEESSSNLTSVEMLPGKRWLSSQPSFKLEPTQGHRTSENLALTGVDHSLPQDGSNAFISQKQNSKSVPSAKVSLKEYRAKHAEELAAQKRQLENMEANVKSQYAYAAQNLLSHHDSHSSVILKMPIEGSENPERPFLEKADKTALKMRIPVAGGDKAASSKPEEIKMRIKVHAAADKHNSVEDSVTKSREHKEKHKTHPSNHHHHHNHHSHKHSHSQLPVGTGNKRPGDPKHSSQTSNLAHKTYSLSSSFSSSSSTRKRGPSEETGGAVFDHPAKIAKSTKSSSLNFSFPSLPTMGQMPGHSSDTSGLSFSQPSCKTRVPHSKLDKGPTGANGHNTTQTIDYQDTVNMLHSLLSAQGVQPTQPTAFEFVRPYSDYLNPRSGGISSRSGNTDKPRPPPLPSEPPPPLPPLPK

| IC50 [1] | EC50 [2] | Structure (SMILES) | EC50 [3] |
| --- | --- | --- | --- |
| 37 nM | 150 nM | COc1ccc(F)cc1-c1ncnc2[nH]c(C3=CCN(C(=O)CO)CC3)cc12 [Example 7, 1-{4-[4-(5-fluoro-2-methoxyphenyl)-7H-pyrrolo[2,3-d]pyrimidin-6-yl]-3,6-dihydropyridin-1(2H)-yl}-2-hydroxyethanone] | 180 nM |
| 120 nM | 260 nM | CNC(=O)N1CC=C(c2cc3c(-c4cc(F)ccc4OC)ncnc3[nH]2)CC1 [Example 17, 4-[4-(5-fluoro-2-methoxyphenyl)-7H-pyrrolo[2,3-d]pyrimidin-6-yl]-N-methyl-3,6-dihydropyridine-1(2H)-carboxamide] | 200 nM |
| 75 nM | 110 nM | COc1ccc(F)cc1-c1ncnc2[nH]c(C3=CCN(Cc4ccc(NS(C)(=O)=O)cc4)CC3)cc12 [Example 81, N-[4-({4-[4-(5-fluoro-2-methoxyphenyl)-7H-pyrrolo[2,3-d]pyrimidin-6-yl]-3,6-dihydropyridin-1(2H)-yl}methyl)phenyl]methanesulfonamide] | 100 nM |

More lines, now with the values behind:

| Structure (SMILES) | IC50 [1] | EC50 [2] | EC50 [3] |
| --- | --- | --- | --- |
| Fc1ccc(NCc2ccccc2)cc1-c1ncnc2[nH]c(C3CCNCC3)cc12 [Example 9, N-benzyl-4-fluoro-3-[6-(piperidin-4-yl)-7H-pyrrolo[2,3-d]pyrimidin-4-yl]aniline] | 72 nM | 120 nM |  |
| COc1ccc(F)cc1-c1ncnc2[nH]c(C3=CCN(CC(=O)N(C)C)CC3)cc12 [Example 80, 2-{4-[4-(5-fluoro-2-methoxyphenyl)-7H-pyrrolo[2,3-d]pyrimidin-6-yl]-3,6-dihydropyridin-1(2H)-yl}-N,N-dimethylacetamide] |  | 130 nM | 120 nM |
| COc1ccc(F)cc1-c1ncnc2[nH]c(C3=CCNCC3)cc12 [Example 3, 4-(5-fluoro-2-methoxyphenyl)-6-(1,2,3,6-tetrahydropyridin-4-yl)-7H-pyrrolo[2,3-d]pyrimidine] |  | 32 nM | 200 nM |
| COc1ccc(F)cc1-c1ncnc2[nH]c(C3CCNCC3)cc12 [Example 1, 4-(5-fluoro-2-methoxyphenyl)-6-(piperidin-4-yl)-7H-pyrrolo[2,3-d]pyrimidine] | 52 nM | 100 nM |  |
| COc1ccc(F)cc1-c1ncnc2[nH]c(C3=CCN(Cc4ccc(C(=O)O)cc4)CC3)cc12 [Example 72, 4-({4-[4-(5-fluoro-2-methoxyphenyl)-7H-pyrrolo[2,3-d]pyrimidin-6-yl]-3,6-dihydropyridin-1(2H)-yl}methyl)benzoic acid] | 110 nM | 5200 nM | 2400 nM |
